The source of these data is PubChem BioAssay (NCI).

Among the test systems are HCT-116 colon; SK-MEL-2 melanoma; ACHN renal; SK-MEL-5 melanoma; SW-620 colon; HS 578T breast; SK-OV-3 ovarian; A498 renal; RXF 393 renal; MCF7 breast.
What all share (assay): NCI tumour cell line growth inhibition, 48 h

Several values for one entry are separate records, joined by “and”; a condition that tells them apart may be missing. Equal values may be shown once.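 Results reflect a 48-hour exposure of cells in 96-well plates to compound at five concentrations. GI50: concentration for 50% inhibition of growth. The concentration for full growth arrest is given as TGI.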

For `OCCN(CCO)c1nc(N2CCCCC2)c2nc(N(CCO)CCO)nc(N3CCCCC3)c2n1`, the TGI in the assay with HCT-116 colon was more than 100 µM; in the assay on SK-MEL-2 melanoma, more than 100 µM; with ACHN renal, more than 100 µM; in the assay with SK-MEL-5 melanoma, 41.8 µM; in the assay with SW-620 colon it was more than 100 µM; in the assay on HS 578T breast, 79.6 µM.
`COc1ccc(-c2oc3c(OC)c(OC)c(OC)c(O)c3c(=O)c2OC)cc1O`: the GI50 in the assay on SK-OV-3 ovarian was less than 0.01 µM; in the assay on ACHN renal, 0.159 µM; with SK-MEL-5 melanoma, less than 0.01 µM; with SW-620 colon, less than 0.01 µM. Besides, the TGI was 0.783 µM and 0.419 µM in the assay with SK-OV-3 ovarian; 5.93 µM in the assay with A498 renal; 0.221 µM in the assay with SK-MEL-2 melanoma; more than 100 µM in the assay on ACHN renal; 0.995 µM with SK-MEL-5 melanoma; more than 100 µM in the assay on SW-620 colon. The compound further came in with a TGI in the assay with RXF 393 renal of 0.504 µM.
`Cc1ccc(/C=N/NS(=O)(=O)c2ccccc2)cc1C`: the TGI in the assay with HCT-116 colon, with SK-OV-3 ovarian, in the assay on A498 renal, with SK-MEL-2 melanoma, in the assay on ACHN renal and in the assay with SK-MEL-5 melanoma was more than 100 µM throughout. Besides, the TGI in the assay on SW-620 colon and with RXF 393 renal was more than 100 µM throughout.
On to `CN(C)CCN(C)C(=O)c1cccc2cccc(C(=O)O)c12`, for which the TGI was more than 100 µM with HCT-116 colon; more than 100 µM with SK-OV-3 ovarian; more than 100 µM with A498 renal; 38.7 µM in the assay with SK-MEL-2 melanoma; more than 100 µM in the assay with ACHN renal; more than 100 µM in the assay with SK-MEL-5 melanoma. Further, the TGI in the assay on SW-620 colon and in the assay on RXF 393 renal was more than 100 µM each time.
Consider `C/C(=C\C(C[C@](C)(O)C(O)CCC#C[Si](C)(C)C)S(=O)(=O)c1ccccc1)CC/C=C/CO[Si](C)(C)C(C)(C)C` (stereo partly specified), for which the TGI in the assay with HCT-116 colon came to 26.6 µM; in the assay on SK-OV-3 ovarian, 40.3 µM; in the assay on A498 renal it was 31.9 µM; in the assay with SK-MEL-2 melanoma it was 44.1 µM; in the assay with ACHN renal, 29.6 µM; in the assay on SK-MEL-5 melanoma it was 28.1 µM. For the same compound, the figures for the TGI with SW-620 colon and with RXF 393 renal were 35.3 µM and 31.3 µM, respectively.
As for `Cc1[nH]c2ccccc2c1C1=NO/C(=N\O)C(c2c(C)[nH]c3ccccc23)C1` (stereo unspecified), the TGI was more than 78.5 µM in the assay on HCT-116 colon; more than 100 µM in the assay on SK-OV-3 ovarian; more than 100 µM with A498 renal; more than 100 µM in the assay with SK-MEL-2 melanoma; more than 91.1 µM in the assay with ACHN renal; more than 31.6 µM in the assay with SK-MEL-5 melanoma. For the same compound, the TGI with SW-620 colon was more than 100 µM; with RXF 393 renal, 87.1 µM.
For `O=C(O)CCSC(=O)Nc1cccc2ccccc12`, the TGI in the assay with HCT-116 colon, in the assay on SK-OV-3 ovarian, in the assay with A498 renal, in the assay with ACHN renal, in the assay with SK-MEL-5 melanoma and in the assay on SW-620 colon was more than 100 µM in each case. The compound further yielded a TGI in the assay with RXF 393 renal of more than 100 µM.
Consider `CC(=O)OC1=C2CC[C@@H]3C(CC[C@@]4(C)C3CC[C@@H]4OC(C)=O)[C@@]2(C)CC(C#N)C1=O` (stereo partly specified), for which the TGI in the assay with HCT-116 colon is more than 100 µM; in the assay on SK-OV-3 ovarian it was 48.1 µM; in the assay on A498 renal, 9.59 µM; in the assay with SK-MEL-2 melanoma, 59.4 µM; in the assay with ACHN renal it was 71 µM; with SK-MEL-5 melanoma, 49.4 µM. Besides, the TGI with SW-620 colon and in the assay on RXF 393 renal was more than 100 µM each time.
Regarding `CC(=O)NCc1c(C(N)=O)ncn1Cc1ccccc1`, the TGI in the assay on HCT-116 colon, in the assay with SK-OV-3 ovarian, with A498 renal, with ACHN renal, with SK-MEL-5 melanoma and in the assay on SW-620 colon was more than 100 µM in each case. Also, the TGI with RXF 393 renal was more than 100 µM.
For the compound `O=[N+]([O-])c1cc(I)cc(/C=N/NS(=O)(=O)c2ccc(Cl)cc2)c1O`, the TGI in the assay on HCT-116 colon is 41.3 µM; in the assay with SK-OV-3 ovarian, 65 µM; in the assay with A498 renal it was 58.8 µM; in the assay with SK-MEL-2 melanoma it was 42.7 µM; in the assay on ACHN renal, 51.4 µM; in the assay with SK-MEL-5 melanoma, 36.9 µM. In addition, the TGI in the assay with SW-620 colon amounted to 82.4 µM; in the assay on RXF 393 renal it was 45.4 µM.
On to `CCc1cccc(C(C)CC)c1NC(=O)C(=O)Cc1nc2ccccc2o1` (stereo unspecified), for which the TGI in the assay with HCT-116 colon, with SK-OV-3 ovarian, with A498 renal, with SK-MEL-2 melanoma, with ACHN renal and with SK-MEL-5 melanoma was more than 50 µM throughout. The TGI in the assay on SW-620 colon and in the assay with RXF 393 renal was more than 50 µM in each case.
Consider `O=C(CC1(O)C(=O)Nc2ccccc21)c1ccc(Cl)cc1Cl` (stereo unspecified), for which the TGI in the assay with HCT-116 colon, with SK-OV-3 ovarian, in the assay on A498 renal, in the assay on SK-MEL-2 melanoma, with ACHN renal and with SK-MEL-5 melanoma was more than 100 µM each time. Further, the TGI in the assay on SW-620 colon and in the assay with RXF 393 renal was more than 100 µM throughout.
Consider `CCN(CC)CCCNc1n[n+]([O-])c2ccccc2[n+]1[O-]`, for which the TGI in the assay with HCT-116 colon was found to be 57.3 µM; with MCF7 breast it was 42.4 µM; in the assay with A498 renal, 16.6 µM; with SK-MEL-2 melanoma, 21.5 µM; with ACHN renal, 53.1 µM; with SK-MEL-5 melanoma it was 3.54 µM. Besides, the TGI in the assay with SW-620 colon is more than 100 µM; with RXF 393 renal, 76.2 µM.
In the case of `C[C@]12CCc3nonc3C1CC[C@@H]1C2CC[C@@]2(C)C1CC[C@@H]2O` (stereo partly specified), the TGI in the assay with SK-OV-3 ovarian, in the assay on A498 renal, with SK-MEL-2 melanoma, with ACHN renal, in the assay with SK-MEL-5 melanoma and with SW-620 colon was more than 100 µM throughout. The compound further displayed a TGI in the assay on RXF 393 renal of more than 100 µM.
As for `CO/C=C(\Br)c1ccc2c(c1)OCO2`, the TGI in the assay on HCT-116 colon, in the assay with SK-OV-3 ovarian, in the assay on A498 renal, in the assay with SK-MEL-2 melanoma, with ACHN renal and in the assay on SW-620 colon was more than 100 µM in each case. In the assay with RXF 393 renal, this compound showed a TGI of more than 100 µM.
For the compound `COc1ccc2c(c1)C(=O)c1c-2c(N2CCN(C(=O)CCNCCNCCN)CC2)nc2ccccc12`, the GI50 in the assay on HCT-116 colon was 1.85 µM; in the assay with SK-OV-3 ovarian, 14.6 µM; in the assay on MCF7 breast it was 5.11 µM; in the assay with A498 renal, 16.9 µM; in the assay on SK-MEL-2 melanoma, 12.4 µM; in the assay on SK-MEL-5 melanoma, 17.6 µM. Moreover, the GI50 is 1.86 µM in the assay on SW-620 colon and 14.2 µM in the assay on HS 578T breast. Also, the TGI with HCT-116 colon was determined as 3.7 µM; in the assay on SK-OV-3 ovarian, 30.6 µM; with MCF7 breast it was 21.6 µM; in the assay on A498 renal, 33.7 µM; in the assay with SK-MEL-2 melanoma, 37 µM; with SK-MEL-5 melanoma it was 36.6 µM. Besides, the TGI turned out to be 3.65 µM in the assay on SW-620 colon and 46.5 µM in the assay with HS 578T breast.
For `C1C[OH+]CCNCC[OH+]CC[OH+]CCN1.N.[Cl-].[Pt+4]`, the GI50 was 32.9 µM in the assay with HCT-116 colon; 25.1 µM in the assay with SK-OV-3 ovarian; 64.6 µM in the assay with A498 renal; 47.2 µM with SK-MEL-2 melanoma; 42 µM in the assay on ACHN renal; 35.5 µM with SK-MEL-5 melanoma. Also, the values for the GI50 in the assay on SW-620 colon and in the assay on RXF 393 renal were 67.7 µM and 22.8 µM, respectively. Besides, the TGI was more than 100 µM in the assay with HCT-116 colon; 96 µM in the assay with SK-OV-3 ovarian; more than 100 µM in the assay on A498 renal; more than 100 µM in the assay on SK-MEL-2 melanoma; more than 100 µM in the assay with ACHN renal; more than 100 µM in the assay on SK-MEL-5 melanoma. Besides, the values for the TGI in the assay on SW-620 colon and with RXF 393 renal were more than 100 µM and 90.3 µM, respectively.
With `Cc1nc2ccccc2c(/C=C/c2ccccc2)c1C(=O)/C=C/c1ccc(C(F)(F)F)cc1`, the GI50 in the assay with HCT-116 colon is 0.226 µM; in the assay with MCF7 breast, 0.631 µM; in the assay on A498 renal, 1.75 µM; with SK-MEL-2 melanoma it was 1.87 µM; with ACHN renal, 1.44 µM; with SK-MEL-5 melanoma, 1.73 µM. Besides, the values for the GI50 in the assay on SW-620 colon and in the assay with RXF 393 renal were 1.02 µM and 1.41 µM, respectively. Further, the TGI in the assay on HCT-116 colon was 1.16 µM; in the assay with MCF7 breast, 2.66 µM; in the assay on A498 renal it was 3.18 µM; in the assay with SK-MEL-2 melanoma, 3.95 µM; in the assay with ACHN renal, 2.75 µM; in the assay on SK-MEL-5 melanoma it was 3.13 µM. Also, the TGI with SW-620 colon amounted to 3.49 µM; in the assay on RXF 393 renal, 3.1 µM.
As for `N#CC1(N2CCCC2)CCC2(CC1)OCCO2`, the TGI in the assay with HCT-116 colon, in the assay on SK-OV-3 ovarian, with A498 renal, with SK-MEL-2 melanoma, in the assay on ACHN renal and in the assay on SK-MEL-5 melanoma was more than 100 µM each time. The TGI with SW-620 colon and with RXF 393 renal was more than 100 µM in each case.
For the compound `CCCCCCCC(=O)OCC1OC(n2cc(F)c(=O)[nH]c2=O)C(N)C(O)C1O` (stereo unspecified), the TGI with HCT-116 colon, in the assay with SK-OV-3 ovarian, in the assay with A498 renal, with SK-MEL-2 melanoma, with ACHN renal and in the assay with SK-MEL-5 melanoma was more than 100 µM throughout. In addition, the TGI in the assay on SW-620 colon and in the assay with RXF 393 renal was more than 100 µM each time.
Regarding `COc1ccc([Se][Se]c2ccc(OC)cc2OC)c(OC)c1`, the TGI with HCT-116 colon was 10.5 µM; in the assay on SK-OV-3 ovarian it was 76.5 µM; in the assay with A498 renal it was 53.5 µM; in the assay on SK-MEL-2 melanoma it was 20.8 µM; with ACHN renal, 8.89 µM; in the assay on SK-MEL-5 melanoma it was 29.3 µM. In addition, the TGI came out at 7.04 µM in the assay on SW-620 colon and 6.27 µM in the assay with RXF 393 renal.
On to `COC(=O)/C(=N\NC(N)=O)C(C#N)c1ccccc1` (stereo unspecified), for which the TGI in the assay with HCT-116 colon, with SK-OV-3 ovarian, in the assay with A498 renal, in the assay with SK-MEL-2 melanoma, in the assay with ACHN renal and with SW-620 colon was more than 100 µM throughout. The TGI with RXF 393 renal is more than 100 µM.
